{
  "source": "patent US20060122267A1",
  "about": "“Compositions and methods for attenuating mitochondria-mediated cell injury” (priority 2003, published 2006)",
  "molecular_target": "T1, mitochondrial complex I (Rattus norvegicus, UniProt Q66HF1)",
  "T1 construct": "Rat heart mitochondria were isolated using differential centrifugation; from tissue; host or cells: rat heart mitochondria (male Sprague-Dawley rats)",
  "T1 sequence (Q66HF1 24-727, one chain of several)": "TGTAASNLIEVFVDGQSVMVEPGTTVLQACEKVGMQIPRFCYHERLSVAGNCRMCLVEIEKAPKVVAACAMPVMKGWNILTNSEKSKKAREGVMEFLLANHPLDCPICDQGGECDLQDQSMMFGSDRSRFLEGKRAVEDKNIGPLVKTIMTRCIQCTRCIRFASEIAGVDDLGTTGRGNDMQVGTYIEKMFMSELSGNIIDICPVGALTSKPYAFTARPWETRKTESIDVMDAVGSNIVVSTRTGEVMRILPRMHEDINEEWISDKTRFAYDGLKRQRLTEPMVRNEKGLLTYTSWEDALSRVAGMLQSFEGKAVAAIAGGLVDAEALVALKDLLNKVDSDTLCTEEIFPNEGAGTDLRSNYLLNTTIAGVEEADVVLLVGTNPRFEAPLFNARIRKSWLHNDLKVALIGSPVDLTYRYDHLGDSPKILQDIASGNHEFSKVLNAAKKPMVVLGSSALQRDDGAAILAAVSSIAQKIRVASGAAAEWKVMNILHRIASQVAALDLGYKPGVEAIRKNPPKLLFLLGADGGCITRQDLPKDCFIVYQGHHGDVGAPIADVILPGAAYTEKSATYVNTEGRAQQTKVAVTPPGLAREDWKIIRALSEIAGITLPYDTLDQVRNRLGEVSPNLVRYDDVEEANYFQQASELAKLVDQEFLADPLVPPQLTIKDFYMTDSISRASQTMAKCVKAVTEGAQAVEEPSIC",
  "experiment": "Complex I S-nitrosation: blue-native gel isolation followed by chemiluminescent S-nitrosothiol analysis",
  "assay_type": "biochemical",
  "conditions": "100 μM treatment",
  "text": "Efforts to detect S-nitrosation within mitochondrial complex I itself relied on isolating the complex using a modified blue-native gel electrophoresis method, followed by chemiluminescent S-nitrosothiol analysis. […] Chemiluminescent analysis of excised gel bands gave an S-nitrosothiol profile of the gel, with four major peaks. The first of these was in a gel segment enriched in complex I.\nAssuming heart mitochondria contain ˜50 pmol complex I per mg protein (Schagger & Pfeiffer (2001) J. Biol. Chem. 276:37861-37867), it was observed that S-nitrosation plateaud at a ˜7:1 mol/mol ratio (i.e., 7 mols S-nitrosothiol per mol complex I), while maximum complex I inhibition was ˜20-25%. This apparent mis-match between the stoichiometry of S-nitrosation (7:1) and the degree of inhibition (25%) may reflect S-nitrosation of complex I on multiple subunits. […]\nChemiluminescent analysis of S-nitrosothiol content was performed on samples originating from blue-native gels, intact mitochondria and SUPEROSE™ 6 chromatography fractions, according to known methodologies (Yang, et al. (2003) Free Radic. Res. 37:1-10). […] Each sample was run in duplicate and quantified using a standard curve created with known concentrations of NaNO2.",
  "data": [
    {"smiles": "N[C@@H](CCC(=O)N[C@@H](CSN=O)C(=O)NCC(=O)O)C(=O)O", "note": "[S-nitrosoglutathione]", "values": [
      {"measurement": "share of total S-nitrosothiol originating from complex I", "value": "~20", "unit": "%"},
      {"measurement": "S-nitrosothiol originating from complex I", "setting": "per mg mitochondrial protein", "value": 350, "unit": "pmols"}
    ]}
  ]
}
